Experimental data from patent US5376679A, “Bicyclic or tricyclic biocidal compounds” (Shell Internationale Research Maatschappij B.V., priority 1988, dated 1994).
Values after ≈ are worked out from the molar mass of the structure shown.

Assays:
[1] = tested on: Plasmopara viticola; assay: Antisporulant activity against vine downy mildew (Pva); assay type: in vivo; settings: foliar spray, 1 kg/ha; activity grade 1 or 2, not defined
Experimental: (j) Antisporulant Activity Against Vine Downy Mildew (Plasmopara viticola; Pva)
The test is a direct antisporulant one using a foliar spray. The lower surfaces of leaves of whole vine plants (cv Cabernet Sauvignon) are inoculated by spraying with an aqueous suspension containing 10^4 zoosporangia/ml 2 days prior to treatment with the test compound. The inoculated plants are kept for 24 hours in a high humidity compartment, and then 24 hours at glasshouse ambient temperature and humidity. When the plants are dry, infected leaves are sprayed on their lower surfaces with a solution of active material in 1:1 water/acetone containing 0.04% w/w "Triton X-155" (trade mark) (an octylphenol polyethoxylate surfactant). The spraying is carried out with a moving track sprayer with delivers 620 liter/ha, and the concentration of active material is calculated to give an application rate of 1 kg/ha. After spraying, the plants are returned to normal glasshouse conditions for 96 hours and are then transferred to the high humidity compartment for 24 hours to induce sporulation, prior to assessment. Assessment is visual and is based on the percentage of the leaf area covered by sporulation compared with that on control leaves.

[2] = tested on: Pseudocercosporella herpotrichoides; assay: In vitro activity against wheat eyespot (Ph); assay type: cell-based; set-up: Ph: activity against wheat eyespot: scale not given here; settings: in vitro, 100 ppm in agar, 11 days; activity grade 1 or 2, not defined
Experimental: (c) Activity Against Wheat Eyespot (Pseudocercosporella herpotrichoides; Ph)
The test is an in vitro one. Samples are prepared wherein 0.7 mls solution containing 2 mg active material dissolved in acetone is evenly dispersed in 20 ml molten half-strength potato dextrose agar (formed by dissolving 2 g potato extract, 10 g dextrose and 7.5 g agar in 1 liter of water and sterilising for 15 minutes and 121° C.) and the resulting 20 ml portions are allowed to set in 9 cm petri dishes. The concentration of active material in the resulting samples is 100 ppm. Upon setting, two plugs of 5 mm diameter taken from the advancing edge of a stock plate of a 3 to 4 week old culture of P.herpotrichoides on full strength potato dextrose agar, incubated at 20°-22° C. in darkness, are placed, equally spaced on the surface of each sample, mycelial side uppermost. The samples are incubated for 11 days at 20°-22° C. in darkness before assessment. Diametric growth is measured with the width of the plug subtracted and results compared with growth on a sample wherein 0.7 ml acetone containing no active material is dispersed in 20 ml half-strength potato agar.

[3] = tested on: Plasmopara viticola; assay: Direct protectant activity against vine downy mildew (Pvp); assay type: in vivo; set-up: Pvp: direct protectant activity against vine downy mildew: scale not given here; settings: foliar spray, 1 kg/ha; activity grade 1 or 2, not defined
Source text: (a) Direct Protectant Activity Against Vine Downy Mildew (Plasmopara viticola; Pvp)
The test is a direct protectant one, using a foliar spray. The lower surfaces of leaves of whole vine plants (cv Cabernet Sauvignon) are sprayed with a solution of active material in 1:1 v/v water/acetone containing 0.04% w "Triton X-155" (trade mark) (octylphenol polyoxyethylene surfactant), at a dosage of 1 kilogram of active material per hectare using a track sprayer which delivers 620 liters/ha, and after a subsequent 24 hours under normal glasshouse conditions the lower surfaces of the leaves are inoculated by spraying with an aqueous solution containing 10^4 zoosporangia/ml. The inoculated plants are kept for 24 hours in a high humidity compartment, 5 days under normal glasshouse conditions and then returned for a further 24 hours to high humidity. Assessment is based on the percentage of leaf area covered by sporulation compared with that on control leaves.

[4] = tested on: Erysiphe graminis f.sp. hordei; assay: Direct antisporulant activity against barley powdery mildew (Eg); assay type: in vivo; set-up: scale not given here; settings: foliar spray, 1 kg/ha; activity grade 1 or 2, not defined
Source text: (f) Activity Against Barley Powdery Mildew (Erysiphe graminis f.sp. hordei; Eg) The test is a direct antisporulant one, using a foliar spray. Leaves of barley seedlings, cultivar Golden Promise, are inoculated by dusting with mildew conidia one day prior to treatment with the test compound. The inoculated plants are kept overnight at glasshouse ambient temperature and humidity prior to treatment. […] After drying, plants are returned to a compartment at ambient temperature and humidity for up to 7 days, followed by assessment. Assessment is based on the percentage of leaf area covered by sporulation compared with that on leaves of control plants.

[5] = tested on: Botrytis cinerea; assay: Direct protectant activity against vine grey mould (Bcp); assay type: in vivo; settings: foliar spray, 1 kg/ha; activity grade 1 or 2, not defined
Source text: (b) Direct Protectant Activity Against Vine Grey Mould (Botrytis cinerea; Bcp) The test is a direct protectant one using a foliar spray and is effected as described under (a), with the difference that the leaves are inoculated by spraying with an aqueous solution containing 10^5 conidia/ml.

[6] = tested on: Fusarium culmorum; assay: Activity against seedling wheat blight, soil drench (Fs); assay type: in vivo; set-up: scale not given here; settings: 10 kg/ha, 21 days, activity grade 1 or 2, not defined
Experimental: (d) Activity Against Seedling Wheat Blight (Fusarium culmorum; Fs)
The test is an anti-sporulant one using a soil drench. Surface sterilised wheat seeds (var Waggoner) are inoculated by soaking in an aqueous suspension containing 7×10^5 spores/ml (60 mg seed per 80 ml suspension) at 22° C. for 6 hours. The seeds are then sown in pots (5 per pot) in sand at a depth of 1 cm. 1 day after inoculation and planting the active material is applied at a rate of 10 kg/ha by pouring on a soil drench (concentration 0.36 g/l active material in 12% v/v acetone/water) evenly over the sand. The pots are then transferred to a glasshouse, kept at 25° C. and watered sparingly. 21 days after inoculation the resulting seedlings are removed from the pots and their roots are gently washed. Visual assessment is made based on lesion development on stem base and upper roots in comparison with control seedlings.

[7] = tested on: Alternaria Solani; assay: Direct protectant activity against tomato early blight (As); assay type: in vivo; set-up: As: activity against tomato early blight: scale not given here; settings: foliar spray as under (a), 8 days; activity grade 1 or 2, not defined; also: dose 1000 g/ha
Experimental: (g) Activity Against Tomato Early Blight (Alternaria Solani; As). The test is a direct protectant one using a foliar spray. The upper surfaces of leaves of young tomato plants are sprayed with a solution of active material as described in (a) above. After 24 hours under normal glasshouse conditions, the upper surfaces of the leaves are inoculated by spraying with an aqueous suspension containing 10^4 spores/ml. The inoculated plants are kept for 72 hours in a high humidity compartment and are then removed to lower humidity (50-70% relative humidity). Assessment is made 8 days after inoculation.

[8] = tested on: Leptosphaeria nodorum; assay: Direct antisporulant activity against wheat leafspot (Ln); assay type: in vivo; set-up: scale not given here; settings: foliar spray, 1 kg/ha; activity grade 1 or 2, not defined
Experimental: (e) Activity Against Wheat Leafspot (Leptosphaeria nodorum; Ln) The test is a direct antisporulant one, using a foliar spray. Leaves of wheat plants ([…]), at the single leaf stage, are inoculated by spraying with an aqueous suspension containing 8×10^5 spores/mi. The inoculated plants are kept for 24 hours in a high humidity compartment prior to treatment. […] After drying, the plants are kept for 5 days under normal glasshouse conditions, followed by assessment. Assessment is based on the percentage of leaf area covered by sporulation compared with that on leaves of control plants.

[9] = tested on: Podosphaera leucotricha; assay: Direct antisporulant activity against apple powdery mildew (Pl); assay type: in vivo; settings: foliar spray, 1 kg/ha; activity grade 1 or 2, not defined
Source text: (h) Activity Against Apple Powdery Mildew (Podosphaera leucotricha; Pl) The test is a direct anti-sporulant one using a foliar spray. The upper surfaces of leaves of whole seedlings are inoculated by spraying with an aqueous suspension containing 10^5 conidia/ml 2 days prior to treatment with the test compound. The inoculated plants are immediately dried and kept at glasshouse ambient temperatures and humidity prior to treatment. […] After drying the plants are returned to a compartment at ambient temperature and humidity for up to 9 days, followed by assessment. Assessment is based on the percentage of the leaf area covered by sporulation compared with that on leaves of control plants.

[10] = tested on: Desulfovibrio sp.; assay: Minimum inhibitory concentration, sulphate-reducing bacteria (Dsp); assay type: cell-based; settings: 30° C., 2, 5 and 10 days
Experimental: The sulphate reducing bacteria Desulfovibrio sp. were cultured in a modified Postgate's Medium B for 48 hours at 30° C. and used directly as an inoculum. The modified Postgate's Medium B consisted of 0.5 g dipotassium hydrogen phosphate, 1 g ammonium chloride, 1 g sodium sulphate, 5 g sodium lactate, 1 g yeast extract, 0.1 ml thioglycolic acid, 0.1 ml ascorbic acid, 0.5 g ferrous sulphate heptahydrate, 750 ml aged seawater and 250 ml distilled water, pH adjusted to 7.8, divided into aliquots and sterilised by autoclaving at 121° C. for 15 minutes. […] Test procedures were as follows: (i) Suphate-reducing Bacteria Test Dilution Series Duplicate aliquots (9.9 ml) of dilution series from the stock solutions of each compound were prepared in a modified Postgate's Medium B described above. These contained 100 ppm compound. These were then inoculated with 0.1 ml of inoculum. After incubation at 30° C., the presence or absence of growth--as indicated by a blackening of the medium due to ferrous sulphide production--was recorded at 2, 5 and 10 days. […] By means of the above tests minimum inhibitory concentrations were determined for the various test compounds.

[11] = tested on: Chaetomium globosum; assay: Minimum inhibitory concentration, Chaetomium globosum (Chg); assay type: cell-based; settings: 30° C., 3, 7 and 10 days
Experimental: (§1) Inocula of the fungi Aspergillus niger, Cladosporium resinae and Chaetomium globosum were prepared containing 5×10^5 conidia/ml in a potato dextrose broth. The potato dextrose broth was prepared by suspending 4 g potato extract and 20 g dextrose in 1 liter of distilled water, warming to achieve solution, separating into aliquots and sterilising by autoclaving at 121° C. for 15 minutes.
(§2) Test procedures were as follows:
(§3) (ii) Dilution Series for Other Test Bacteria, Yeast and Filamentous Fungi
(§4) Dilution series from the stock solution of each compound were prepared in sterile distilled water. These contained 50, 100, 500 and 1000 ppm compound. To duplicate wells of a compartmentalised square petri dish 0.3 ml of each test compound concentration was added together with 2.7 ml of one of the microbial inocula described above. This gave final concentrations of the test compound of 5, 10, 50 and 100 ppm.
(§5) After incubation, in the dark, at 30° C. the wells were examined for the presence or absence of growth. Bacterial and yeast cultures were examined after 24 hours and 72 hours incubation and the fungi cultures after 3, 7 and 10 days.
(§6) By means of the above tests minimum inhibitory concentrations were determined for the various test compounds.

[12] = tested on: Staphylococcus aureus; assay: Minimum inhibitory concentration, Staphylococcus aureus (Sa); assay type: cell-based, Staphylococcus aureus (NCIB 6571); settings: 30° C., 24 and 72 hours
Experimental: (§7) In respect of S. aureus, B. subtilis and E. coli, the microorganisms were cultured in 50 ml aliquots of a tryptone soya broth in 250 ml conical flasks at 30° C. on a rotary shaker at 200 rpm for 24 hours. Tryptone soya broth was prepared by adding 17 g pancreatic digest of casein, 3 g […] digest of soyabean meal, 5 g of sodium chloride, 2.5 g of dipotassium hydrogen phosphate and 2.5 g of dextrose to 1 liter of distilled water, mixing and sterilising by autoclaving at 121° C. for 15 minutes. 1 ml aliquots of the resulting cultures were mixed with 99 ml of fresh tryptone soya broth and used as inocula for tests. […] Test procedures were as follows: (ii) Dilution Series for Other Test Bacteria, Yeast and Filamentous Fungi Dilution series from the stock solution of each compound were prepared in sterile distilled water. These contained 50, 100, 500 and 1000 ppm compound. To duplicate wells of a compartmentalised square petri dish 0.3 ml of each test compound concentration was added together with 2.7 ml of one of the microbial inocula described above. […] After incubation, in the dark, at 30° C. the wells were examined for the presence or absence of growth. Bacterial and yeast cultures were examined after 24 hours and 72 hours incubation and the fungi cultures after 3, 7 and 10 days. By means of the above tests minimum inhibitory concentrations were determined for the various test compounds.

[13] = tested on: Aspergillus niger; assay: Minimum inhibitory concentration, Aspergillus niger (An); assay type: cell-based, Aspergillus niger (CMI 17454); settings: 30° C., 3, 7 and 10 days
Experimental: as §1, §2, §3, §4, §5, §6

[14] = tested on: Saccharomyces cerevisiae; assay: Minimum inhibitory concentration, yeast (Sc); assay type: cell-based, Saccharomyces cerevisiae (ATCC 9763); settings: 30° C., 24 and 72 hours
Experimental: Inocula of S. cerevisiae were prepared as for S. aureus, B. subtilis and E. coli, but using yeast malt broth in place of the typtone soya broth. The yeast malt broth was prepared by suspending 3 g yeast extract, 3 g malt extract, 5 g peptone and 10 g dextrose in 1 liter of distilled water, warming to achieve solution and sterilising by autoclaving at 121° C. for 15 minutes.
as §2, §3, §4, §5, §6

[15] = tested on: Bacillus subtilis; assay: Minimum inhibitory concentration, Bacillus subtilis (Bs); assay type: cell-based; settings: 30° C., 24 and 72 hours
Experimental: as §7

[16] = tested on: Cladosporium resinae; assay: Minimum inhibitory concentration, Cladosporium resinae (Cr); assay type: cell-based; settings: Amorphotheca resinae, 30° C., 3, 7 and 10 days
Experimental: as §1, §2, §3, §4, §5, §6

[17] = tested on: Escherichia coli; assay: Minimum inhibitory concentration, Escherichia coli (Ec); assay type: cell-based, Escherichia coli (NCIB 9517); settings: 30° C., 24 and 72 hours
Experimental: as §7

SMILES | Other: Pva, antisporulant activity against vine downy mildew [1] | Ph: activity against wheat eyespot [2] | Pvp: direct protectant activity against vine downy mildew [3] | Eg: activity against barley powdery mildew [4] | Bcp: direct protectant activity against vine grey mould [5] | Fs: activity against seedling wheat blight [6] | further results
COC(=O)N=Nc1cc(Cl)c(C)c2c1OC(C)C2 (centres unmarked) [Example 35] | 1 | 1 | 1 |  |  |  | 
COC(=O)N=Nc1cc(C)cc2c1OC(C)C2 (centres unmarked) [Example 33] | 1 |  | 1 | 1 |  |  | 
CC1(C)Cc2cccc([N+]([O-])=NC#N)c2O1 [Example 2] |  | 2 | 1 |  | 2 | 2 | 
Cc1ccc([N+]([O-])=NC#N)c2c1CC(C)(C)O2 [Example 3] |  | 2 | 2 |  | 1 | 1 | As: activity against tomato early blight [7]: 1; Ln: activity against wheat leafspot [8]: 1
COCC1Cc2c(Cl)c(C)cc(N=NC(=O)OC)c2O1 (centres unmarked) [Example 36] |  | 2 | 1 | 2 |  |  | Other: Pl, activity against apple powdery mildew [9]: 2
Cc1cc2c(F)ccc([N+]([O-])=NC#N)c2o1 [Example 22] |  | 2 |  | 2 | 1 | 2 | MIC [10]: 50 µg/mL (≈ 228 µM); MIC [11]: 5 µg/mL (≈ 22.8 µM); MIC [12]: > 100 µg/mL; MIC [13]: 10 µg/mL (≈ 45.6 µM); MIC [14]: 25 µg/mL (≈ 114 µM); MIC [15]: 50 to 100 µg/mL (≈ 228 to 456 µM); MIC [16]: 10 to 25 µg/mL (≈ 45.6 to 114 µM); MIC [17]: > 100 µg/mL
